Source: patent publication US20120225123A1, “Use of Synergistic Combinations of an Avermectin and an Antineoplastic Compounds for the Treatment of Hematological Malignancies” (UNIVERSITY HEALTH NETWORK, priority 2009, published 2012)
Where two headings read alike, the source gives them in different places.

Assays:
[1] = tested on: primary normal hematopoietic cells (PBSC); assay: Cell viability by Annexin V and PI staining, normal hematopoietic cells; assay type: cell-based, human; settings: 48 hours, concentrations up to 20 μM
Experimental: Primary human acute myeloid leukemia (AML) samples were isolated from fresh bone marrow and peripheral blood samples of consenting patients. Similarly, primary normal hematopoietic cells were obtained from healthy consenting volunteers donating peripheral blood mononuclear cells
(PBSCs) for stem cell transplantation. The mononuclear cells were isolated from the samples by Ficoll density centrifugation. Primary cells were cultured at 37° C. in IMDM supplemented with 20% FCS and appropriate antibiotics.
(§1) Cell growth and viability was assessed by the MTS assay (Promega, Madison, Wis.) according to the manufacturer's instructions and as previously described.^12 Cell death was measured by Annexin V-fluoroscein isothiocyanate (FITC) and Propidium Iodide (PI; Biovision Research Products, Mountain View, Calif.) staining and flow cytometry according to the manufacturer's instructions and as previously described.^13 To identify CD34+ cells, a normal PBSC sample was co-stained with PE-anti-CD34+ (Beckman Coulter, Marseille France), and APC-anti-CD45 (Becton Dickenson, San Jose Calif.).
Given the cytotoxicity of IVM toward leukemia cell lines, its cytotoxicity was compared to primary normal hematopoietic cells and acute myeloid leukemia (AML) patient samples (n=4 intermediate risk cytogenetics, n=1 good risk cytogenetics, and n=1 unknown cytogenetics). […]

[2] = tested on: OCI-AML2 subcutaneous xenografts; assay: OCI-AML2 xenograft, intraperitoneal ivermectin: Tunel staining and STAT1 Q-RT-PCR; assay type: in vivo, mouse
Experimental: In order to measure gene expression changes in vivo, OCI-AML2 cells (2.5×10^5) were injected subcutaneously into the flanks of sub-lethally irradiated NOD/SCID mice. Once tumors were established, mice were treated with ivermectin (7 mg/kg) or vehicle control intraperitoneally for 5 days. After treatment, mice were sacrificed, and tumors harvested. mRNA was extracted and changes in STAT expression were measured by quantitative RT-PCR (QRT-PCR). Evidence of apoptosis was measured by Tunel staining and immunohistochemistry (Pathology Research Program, University Health Network, Toronto, Canada).
Changes in ROS production are indicative of a biological response to ivermectin, but are very difficult to measure in the context of a clinical trial. Therefore, to identify alterations in gene expression that are a result of ROS production and could be used as biomarkers in the context of a clinical trial, gene expression profiling analysis (using Affymetrix HG U133 Plus 2.0 arrays) RNA derived from OCI-AML2 cells treated with ivermectin for 30 hr and 40 hr was undertaken. One hundred and fifty genes were deregulated >4-fold at both time points (33 under-expressed; 117 over-expressed) compared to control. […] Changes in STAT1 expression in tumors from a leukemia xenograft model were also evaluated. […] After treatment, tumors were harvested, mRNA extracted, and STAT1 expression measured by Q-RT PCR.

[3] = tested on: DU145 prostate cancer cells; assay: Cell death by Annexin V and PI staining in DU145 cells; assay type: cell-based, human; settings: 24 hours
Experimental: as §1

OCI-AML2 cells [4] = assay: Intracellular chloride (SPQ) and cell size (forward light scatter), OCI-AML2; assay type: cell-based, human
Experimental: Intracellular chloride concentration was measured using a fluorescent indicator for chloride, SPQ as previously described.^16 Upon binding halide ions like chloride, SPQ is quenched resulting in a decrease in fluorescence without a shift in wavelength. […] After 15 minutes of incubation with SPQ, cells were diluted 15:1 in HBSS and centrifuged. The supernatant was removed, cells were resuspended in 200 μl of fresh HBSS and incubated for 15 minutes in 37° C. to allow recovery from the hypotonic shock. Cells were then stained with propidium iodide and SPQ fluorescence in the PI negative cells was determined using an LSR-II flow cytometer (Beckton Dickonson, San Jose, Calif.) (excitation 351 nm, emission 485 nm). In parallel, changes in cell size were determined by measuring forward light scatter by flow cytometry. Results were analyzed with FlowJo version 8.8 (TreeStar, Ashland, Oreg.).

OCI-AML2 cells [5] = assay: Reactive oxygen species, Carboxy-H2DCFDA staining, OCI-AML2; assay type: cell-based, human; settings: increasing concentrations, flow cytometry
Experimental: Data were analyzed with FlowJo version 8.8 (TreeStar, Ashland, Oreg.).

[6] = tested on: U937 and TEX leukemia cells; primary AML cells; assay: Reactive oxygen species, Carboxy-H2DCFDA staining, sensitive cells; assay type: cell-based, human
[7] = tested on: DU145 and PPC-1 cells; normal hematopoietic cells; assay: Reactive oxygen species, Carboxy-H2DCFDA staining, resistant cells; assay type: cell-based, human
[8] = tested on: STAT1 and target genes IFIT3, OAS1 and TRIM22 in OCI-AML2 cells; assay: Gene expression by Q-RT-PCR, OCI-AML2; assay type: cell-based, human; settings: after ivermectin treatment, Q-RT-PCR
Experimental: Leukemia cells were treated with buffer control or ivermectin (3 μM) for 30 and 40 hours. After treatment, cells were harvested, total RNA was isolated. Total RNA (10 μg) was used for cRNA amplification using the Invitrogen SuperScript kit (Life Technologies, Inc., Burlington, ON, Canada). Amplification and biotin labeling of antisense cRNA was performed using the Enzo® BioArray™ High Yield™ RNA transcript labeling kit (Enzo Diagnostics, Farmingdale, N.Y., USA), according to the manufacturer's instructions. RNA was then hybridized to Affymetrix HG U133 Plus 2.0 gene expression oligonucleotide arrays (Affymetrix, Santa Clara, Calif., USA). Microarray slides were scanned using the GeneArray 2500 scanner (Agilent Technologies). Microarray data were analyzed using GeneSpring GX v10.0 (Agilent), and lists of genes deregulated>2-fold after 30 and 40 hr ivermectin treatment were derived. Pathways and gene ontology analyses were carried out using Ingenuity Pathways Analysis (www.ingenuity.com); and the Database for Annotation, Visualization and Integrated Discovery (DAVID; http://david.abcc.ncifcrf.gov). […]
Gene expression changes were evaluated in OCI AML2, 0937, HL60, DU145 and PPC-1 cells by real-time Q-RT-PCRas described previously^15, 47. The expression level of STAT1A, STAT1B, TRIM22, OAS1 and IFIT3 before and after incubation of leukemia cells with ivermectin was evaluated.

[9] = cited from earlier work

ivermectin
induction of cell death [1]: did not induce cell death | apoptosis in the subcutaneous tumor, Tunel staining ([2]; 7 mg/kg intraperitoneally for 5 days): increased apoptosis | STAT1 mRNA in tumors vs vehicle control ([2]; ivermectin for 5 days, Q-RT PCR): increased in two of three tested tumors | sensitivity to IVM induced cell death [3]: more resistant to IVM induced cell death | intracellular chloride, SPQ fluorescence (OCI-AML2 cells [4]; 10 μM IVM, 2 hours): decreased SPQ fluorescence | cell size (OCI-AML2 cells [4]; 2 hours of treatment, flow cytometry): caused an increase in cell size | ROS production (OCI-AML2 cells [5]): increased ROS production | ROS generation ([6]; U937 and TEX cells, 2 hours after treatment): demonstrated increased ROS generation | ROS generation ([6]; primary AML cells): demonstrated increased ROS generation | ROS generation ([7]; DU145 and PPC-1 cells): did not show changes in ROS generation | ROS generation ([7]; normal hematopoietic cells): not normal hematopoietic cells | expression of STAT1 and target genes [8]: upregulation of STAT1 and target genes IFIT3, OAS1 and TRIM22 | adverse effects ([9]; healthy volunteers, oral, dose of 120 (~2 mg/kg)): no serious adverse effects were noted | adverse effects ([9]; patients with spinal injury, up to 1.6 mg/kg subcutaneously twice weekly for up to 12 weeks): no significant adverse effects were reported
